Reference: patent US10307411B2, “Use of cotinine in treating or preventing neurogenesis deficits and enhancing neurogenesis” (Department of Veterans Affairs, priority 2014, dated 2019)

Key:
[1] = system: VEGF; experiment: Western blot of VEGF in hippocampus of mice subjected to repetitive forced swim stress; format: in vivo
Experimental: Mice pretreated with 5 mg/kg of cotinine (Cot 5) or vehicle (Veh) were exposed to repetitive 6-min forced swim (FS) daily for 6 days (a) to under continuous treatment. Following testing, mice were euthanized and the levels of VEGF and β-tubulin in the hippocampus were analyzed by Western blot. The plots represent VEGF immunoreactivity (IR) values in the hippocampus of mice. […] Mice pretreated with 5 mg/kg of cotinine (Cot 5) or vehicle (Veh) were exposed to repetitive 6-min forced swim (FS) daily for 6 days (a) to under continuous treatment or controls, not subjected to the forced swim (NES). Following resting, mice were euthanized and the levels of VEGF and β-tubulin in the hippocampus were analyzed by Western blot. The plots represent VEGF immunoreactivity (IR) values in the hippocampus of mice. […] The Western blot analysis investigated the expression of VEGF (FS mice: n=8-1O/group; NES mice: n=4-5/group). […] Brain tissues were then disrupted by sonication in cold lyses buffer (Cell Signaling Technology, Danver, Mass., USA) containing a complete protease inhibitor cocktail (Roche Molecular Biochemicals). After sonication, brain extracts were incubated on ice for 30 min and centrifuged at 20,000×g for 30 min at 4° C. Protein concentrations of supernatants were measured using the Bio-Rad protein assay (Bio-Rad, Hercules, Calif., USA). Equal amounts of protein were separated by gradient (4-20%), SOS-PAGE, then transferred to nitrocellulose membranes (BA83 0.2 μM; Bio-Rad). The membranes were blocked in TBS with 0.1% Tween 20 (TBST) containing 5% dry skim milk for 1 h. Membranes were incubated with primary antibodies in TBST overnight at 4° C. and with secondary antibodies for 1 h at room temperature (RT) in a blocking buffer. […] Images were acquired using an Odyssey Infrared Imaging System (Ll-COR Biosciences) and analyzed using the NIH Image J software. To analyze the group and treatment effects, differences between group means in the behavioral analyses were assessed using two-way analysis of variance (ANOVA) and post hoc Tukey test. […]

[2] = Weight gain in rats subjected to CMF chemotherapy; format: in vivo, Wistar female rats
Experimental: Wistar female rats (2-4 months of age, 200-300 g) (n=10/group) were obtained from Harlan laboratories. Rats were housed in pairs, kept at 12 h light/12 h dark cycle and maintained in an air-conditioned room at a temperature of 21±1° C. and relative humidity of 60±10%. Food and water were available ad libitum. All rats were acclimated to the Veterinary Medical Unit for 1 week and handled daily. Weight was recorded every 2 days to assess for dehydration induced by the chemotherapy regime. All procedures were approved by the Institutional Animal Care and Use (IACUC) committee of the Bay Pines Veterans Affairs (VA) Healthcare System, in accordance with VA and The Guide for the Care and Use of Laboratory Animals. Following the habituation period, rats were divided into 4 groups (n=6-12/condition) and treated with warm saline (vehicle) or a combination of cyclophosphamide (40 mg/kg), methotrexate (37.5 mg/kg) and 5-fluorouracil (75 mg/kg) (CMF) via intraperitoneal (i.p. or IP) injection once a week for 2 weeks, the shortest time inducing cognitive impairment in the rats. […] Differences among the means were analyzed using one-way analysis of variance (ANOVA). […]

[3] = Porsolt's forced swim test, depressive-like behavior in rats subjected to CMF chemotherapy; format: in vivo, Wistar female rats; details: cotinine 5 mg/kg oral
Experimental: Wistar female rats (2-4 months of age, 200-300 g) (n=10/group) were obtained from Harlan laboratories. Rats were housed in pairs, kept at 12 h light/12 h dark cycle and maintained in an air-conditioned room at a temperature of 21±1° C. and relative humidity of 60±10%. Food and water were available ad libitum. All rats were acclimated to the Veterinary Medical Unit for 1 week and handled daily. Weight was recorded every 2 days to assess for dehydration induced by the chemotherapy regime. […]
This task was chosen to determine the effect of cotinine on depressive-like behavior is one of the more broadly used to assess potential antidepressant effects of drugs (Porsolt R D, Bertin A, Jalfre M (1977) Behavioral despair in mice: a primary screening test for antidepressants. Arch Int Pharmacodyn Ther 229(2):327-336; Castagne V, Moser P, Roux S, Porsolt R D (2010) Rodent models of depression: forced swim and tail suspension behavioral despair tests in rats and mice. Curr Protoc Neurosci 49:5.8.1-5.8.14). […] The freezing behavior, during 6-min trials, was recorded on video and scored by investigators blinded to the treatment arms. The immobility (freezing) time was recorded during a 6-min forced swim (FS) trial. […] The time in seconds (sec) spent by the mice immobile was scored by two investigators blind to the mice's treatments. […]

[4] = clinical studies, doses up to 1.5 mg cotinine base/kg; cited from earlier work
[5] = system: Salmonella; details: 0-1000 μg/plate; cited from earlier work
[6] = system: Chinese hamster ovary; details: 0-1000 μg/ml; cited from earlier work
[7] = system: 17-ketosteroid reductase; details: in vitro; cited from earlier work

## CN1C(=O)CC[C@H]1c1cccnc1 [cotinine, (5S)-1-methyl-5-(3-pyridyl) pyrrolidin-2-one]
[1]; FS mice, cotinine 5 mg/kg, compared with non-stressed mice
  VEGF protein expression in the hippocampus vs NES mice: not significantly different
[1]; FS mice, cotinine 5 mg/kg, normalized to β-tubulin
  VEGF protein expression in the hippocampus vs vehicle-treated FS mice: significantly higher levels of VEGF expression
[1]; non-stressed mice, cotinine vs vehicle, t=0.2910, p=0.7795
  VEGF protein expression in the absence of stress: no changes in VEGF expression
[2]; CMF-treated rats, cotinine 5 mg/kg oral daily from 3 days after chemotherapy, vs chemotherapy-treated control rats p<0.05
  recovery of weight gain after chemotherapy: enhanced the recovery of weight gain
[2]; cotinine 5 mg/kg oral daily, 30 days of experiments
  weight levels reached compared with vehicle-treated rats: indistinguishable from the vehicle-treated rats
[3]; CMF-treated rats, p<0.01
  depressive-like behavior (immobility), chemotherapy-treated vs chemotherapy and cotinine-treated: significant reduction
[3]; rats without chemotherapy, p<0.001
  depressive-like behavior (immobility), vehicle-treated vs cotinine-treated: significant reduction
[4]
  recall of a short list: did not affected the recall
  recall on the long list on a verbal recall task: impaired recall
[5]
  genotoxic effects, Salmonella mutagenicity: no genotoxic effects
[6]
  genotoxic effects, sister chromatid exchange (SCE): no genotoxic effects
[7]
  inhibition of 17-ketosteroid reductase: inhibiting
